Source: ChEMBL document CHEMBL6115007, “Synthesis and in vitro and in vivo evaluation of novel bivalent quinolines as antitumor agents via targeting autophagy in cervical cancer” (Eur J Med Chem, 2025)
pIC50: −log10 of the molar value. The source made the active and inactive calls. The calls are words filed in the database; no cut-off is given here.

Tests used:
[1] = tested on: Ca-Ski; test: Inhibition of colony formation in human Ca Ski cells assessed as reduction in colony forming unit count at 0.1 to 0.4 uM incubated for 24 hrs by crystal violet staining based analysis; type: functional, cell-based; details: dose 0.1-0.4 µM
[2] = tested on: HeLa; test: Upregulation of autophagy pathway related gene expression in human HeLa cells at 1.2 uM incubated for 24 hrs by heat-map analysis; type: functional, cell-based
[3] = tested on: HeLa; test: Antitumor activity against human HeLa cells xenografted in female BALB/c mouse assessed as inhibition of tumor progression at 4 to 8 mg/kg administered every four days and measured after 26 days by imaging analysis; type: functional, organism-based; details: dose 4-8 mg/kg, time 26.0 day
[4] = tested on: SiHa; test: Induction of morphological changes in human SiHa cells assessed as increase in inflated cell appearance at 0.5 to 2 uM by microphotographic analysis; type: functional, cell-based; details: dose 0.5-2 µM
[5] = tested on: SiHa; test: Inhibition of colony formation in human SiHa cells assessed as reduction in colony forming unit count at 0.1 to 0.4 uM incubated for 24 hrs by crystal violet staining based analysis; type: functional, cell-based; details: dose 0.1-0.4 µM
[6] = tested on: Ca-Ski; test: Induction of apoptosis in human Ca Ski cells assessed as early apoptotic cells at 0.5 uM incubated for 24 hrs by Annexin V-FITC/PI staining based flow cytometric analysis (reference value: 4.76 %); type: functional
[7] = tested on: BGC-823; test: Antiproliferative activity against human BGC-823 cells assessed as reduction in cell optical density incubated for 48 hrs by MTT assay; type: functional, cell-based; details: BGC-823, 48 h
[8] = tested on: HeLa; test: Induction of apoptosis in human HeLa cells assessed as viable cells at 1.2 uM preincubated with Z-VAD-FMK for 1 hrs followed by compound addition and measured after 24 hrs by Annexin V-FITC/PI staining based flow cytometric analysis (reference value: 95.8 %); type: functional; details: read-out: Activity
[9] = tested on: HeLa; test: Antitumor activity against human HeLa cells xenografted in female BALB/c mouse assessed as reduction in Ki67 expression in tumor at 4 to 8 mg/kg administered every four days and measured after 26 days by immunohistochemical analysis; type: functional, organism-based; details: dose 4-8 mg/kg, time 26.0 day
[10] = tested on: HeLa; test: Induction of apoptosis in human HeLa cells assessed as necrotic cells at 1.2 uM preincubated with Z-VAD-FMK for 1 hrs followed by compound addition and measured after 24 hrs by Annexin V-FITC/PI staining based flow cytometric analysis (reference value: 2.16 %); type: functional
[11] = tested on: HeLa; test: Induction of apoptosis in human HeLa cells assessed as early apoptotic cells at 1.2 uM incubated for 24 hrs by Annexin V-FITC/PI staining based flow cytometric analysis (reference value: 0.97 %); type: functional
[12] = tested on: MCF7; test: Antiproliferative activity against human MCF7 cells assessed as reduction in cell optical density incubated for 48 hrs by MTT assay; type: functional, cell-based; details: MCF7, 48 h
[13] = tested on: HeLa; test: Induction of autophagy in human HeLa cells assessed as increase in ATG7 protein level at 0.6 to 1.2 uM incubated for 24 hrs by Western blot analysis; type: functional, cell-based; details: dose 0.6-1.2 µM
[14] = tested on: C-33-A; test: Induction of morphological changes in human C-33-A cells assessed as decrease in cell adherence to culture dish at 0.3 to 1.2 uM by microphotographic analysis; type: functional, cell-based; details: dose 0.3-1.2 µM
[15] = tested on: HeLa; test: Effect on caspase 3 expression level in human HeLa cells at 0.3 to 1.2 uM incubated for 24 hrs by Western blot analysis; type: functional, cell-based; details: dose 0.3-1.2 µM
[16] = tested on: HeLa; test: Induction of apoptosis in human HeLa cells assessed as necrotic cells at 1.2 uM incubated for 24 hrs by Annexin V-FITC/PI staining based flow cytometric analysis (reference value: 1.88 %); type: functional
[17] = tested on: Ca-Ski; test: Antiproliferative activity against Bax deficient human Ca Ski cells assessed as inhibition of cell viability incubated for 24 hrs by CCK8 assay; type: functional, cell-based
[18] = tested on: Ca-Ski; test: Induction of autophagy in human Ca Ski cells assessed as increase in p62 level at 0.25 to 1 microM incubated for 24 hrs by Western blot analysis; type: functional, cell-based; details: dose 0.25-1 µM
[19] = tested on: HeLa; test: Induction of autophagy in human HeLa cells transfected with mRFP-GFP-LC3 plasmid assessed as appearance of RFP puncta clusters as aggregates in cytoplasm at 30 uM incubated for 24 hrs by DAPI staining based fluorescence confocal microscopic analysis; type: functional, cell-based
[20] = tested on: HeLa; test: Induction of apoptosis in human HeLa cells assessed as late apoptotic cells at 1.2 uM preincubated with Z-VAD-FMK for 1 hrs followed by compound addition and measured after 24 hrs by Annexin V-FITC/PI staining based flow cytometric analysis (reference value: 1.02 %); type: functional
[21] = tested on: Ca-Ski; test: Induction of apoptosis in human Ca Ski cells assessed as viable cells at 1 uM preincubated with Z-VAD-FMK for 1 hrs followed by compound addition and measured after 24 hrs by Annexin V-FITC/PI staining based flow cytometric analysis (reference value: 90.2 %); type: functional; details: read-out: Activity
[22] = tested on: HeLa; test: Effect on cleaved caspase 3 expression level in human HeLa cells at 0.3 to 1.2 uM incubated for 24 hrs by Western blot analysis; type: functional, cell-based; details: dose 0.3-1.2 µM
[23] = tested on: HeLa; test: Effect on Beclin1 protein level in human HeLa cells at 0.6 to 1.2 uM incubated for 24 hrs by Western blot analysis; type: functional, cell-based; details: dose 0.6-1.2 µM
[24] = tested on: HeLa; test: Effect on caspase 3 expression level in Bax deficient human HeLa cells at 0.6 to 1.2 uM incubated for 24 hrs by Western blot analysis; type: functional, cell-based; details: dose 0.6-1.2 µM
[25] = tested on: HeLa; test: Antitumor activity against human HeLa cells xenografted in female BALB/c mouse assessed as reduction in tumor weight at 4 mg/kg administered every four days and measured after 26 days relative to control; type: functional; parameters: scale not given: the % may be the effect or the level left; details: time 26 day
[26] = tested on: Ca-Ski; test: Induction of apoptosis in human Ca Ski cells assessed as late apoptotic cells at 0.5 uM incubated for 24 hrs by Annexin V-FITC/PI staining based flow cytometric analysis (reference value: 5.33 %); type: functional
[27] = tested on: Ca-Ski; test: Induction of apoptosis in human Ca Ski cells assessed as late apoptotic cells at 1 uM preincubated with Z-VAD-FMK for 1 hrs followed by compound addition and measured after 24 hrs by Annexin V-FITC/PI staining based flow cytometric analysis (reference value: 5.30 %); type: functional
[28] = tested on: Ca-Ski; test: Effect on cleaved PARP expression level in Bax deficient human Ca Ski cells at 0.5 to 1 uM incubated for 24 hrs by Western blot analysis; type: functional, cell-based; details: dose 0.5-1 µM
[29] = tested on: HeLa; test: Induction of apoptosis in human HeLa cells assessed as necrotic cells at 0.6 uM preincubated with Z-VAD-FMK for 1 hrs followed by compound addition and measured after 24 hrs by Annexin V-FITC/PI staining based flow cytometric analysis (reference value: 2.16 %); type: functional
[30] = tested on: Ca-Ski; test: Effect on PARP expression level in p53 deficient human Ca Ski cells at 0.5 to 1 uM incubated for 24 hrs by Western blot analysis; type: functional, cell-based; details: dose 0.5-1 µM
[31] = tested on: Ca-Ski; test: Induction of apoptosis in human Ca Ski cells assessed as necrotic cells at 0.5 uM incubated for 24 hrs by Annexin V-FITC/PI staining based flow cytometric analysis (reference value: 3.15 %); type: functional
[32] = tested on: Ca-Ski; test: Antiproliferative activity against ATG7 deficient human Ca Ski cells assessed as inhibition of cell viability incubated for 24 hrs by CCK8 assay; type: functional, cell-based
[33] = tested on: HeLa; test: Induction of apoptosis in human HeLa cells assessed as early apoptotic cells at 1.2 uM preincubated with Z-VAD-FMK for 1 hrs followed by compound addition and measured after 24 hrs by Annexin V-FITC/PI staining based flow cytometric analysis (reference value: 0.96 %); type: functional

pIC50 [7]: 5.39
pIC50 [12]: 5.51
Compound: COc1cccc(Nc2ccnc3cc(OCCCCCOc4ccc5c(Nc6cccc(OC)c6)ccnc5c4)ccc23)c1
inhibition [1]: Active
Activity [2]: Active
Activity [3]: Active
Activity [4]: Active
inhibition [5]: Active
Activity [6]: 8.01%
viability at 1.2 µM [8]: 93.6%
Activity [9]: Active
Activity [10]: 1.49%
Activity [11]: 1.25%
Activity [13]: Active
Activity [14]: Active
Activity [15]: inactive
Activity [16]: 1.47%
pIC50 [17]: 6.00
Activity [18]: Active
Activity [19]: Active
Activity [20]: 3.71%
viability at 1 µM [21]: 86.1%
Activity [22]: inactive
Activity [23]: inactive
Activity [24]: inactive
Activity [25]: 46.27%
Activity [26]: 5.88%
Activity [27]: 6.59%
Activity [28]: inactive
Activity [29]: 1.01%
Activity [30]: inactive
Activity [31]: 0.64%
pIC50 [32]: 5.54
Activity [33]: 1.22%
